Where no end group is shown, it is not given here.
Tests used:
[1] = tested on: peritoneal macrophages; assay: qPCR of inflammatory genes in cultured peritoneal macrophages; type: cell-based, mice; conditions: LPS 100 ng/ml, 4 hr; both WT and Chga-KO macrophages
Experimental: Peritoneal macrophages were isolated after thioglycollate (3% solution in water) stimulation as described. Isolated macrophages were cultured in DMEM with 10% FBS for 48 hours with daily medium changes. Cells were then serum-starved overnight in DMEM with low FBS (0.5%) and then exposed to saline, PST (100 nM), or LPS (100 ng/ml) for 4 hours. At the end of incubation, the cultures were subjected to RNA extraction.
RNA from tissues was extracted using a kit (RNeasy Plus, Qiagen, Valencia, Calif.). After DNase digestion, 200 ng of RNA was transcribed into cDNA in a 20-μl reaction using a High Capacity cDNA Archive kit and this cDNA was amplified. PCR (25-μl reactions) contained 5 μl of cDNA, 2×SYBR Green PCR Master Mix, and 400 nM of each primer. Differences in the threshold cycle number (ΔCt) between the target gene, the housekeeping gene Gapdh and the ribosomal protein gene 36B4 were used to calculate differences in expression. Primer sequences are provided below.
As shown in FIGS. 18A-18H, PST promotes macrophage inflammation and chemotaxis. Peritoneal macrophages were isolated from WT-NCD and KO-NCD after thioglycollate injection. After 4-hr exposure to saline, LPS (100 ng/ml) or PST (100 nM), RNAs were extracted and cDNAs were prepared for qPCR analyses of Chga (FIG. 18A, n=8), iNos (FIG. 18B, n=8), Tnfα (FIG. 18C, n=8), Mcp-1 (FIG. 18D, n=8), IL-6 (FIG. 18E, n=8), IL-12p40 (FIG. 18F, n=8) and iNos genes (FIG. 18G, n=8). (FIG. 18H) Effects of PST on chemotaxis of activated macrophages from NCD-fed C57BL/6J mice (n=5). “*” Denotes comparison between the indicated groups. “*”: P<0.05, “**”: p<0.01, “***”: p<0.001.

[2] = Heart function; conditions: in vivo

| Substance | expression of iNos [1] [fold] | effects on heart function [2] |
| --- | --- | --- |
| lipopolysaccharide [LPS] | ~100 |  |
| KGEQEHSQQKEEEEEMAVVPQGLFRG-NH2 [PSTv1] |  | no adverse effects on heart function |

Source: US20170209544A1, “A PEPTIDE THERAPY TO COUNTERACT INSULIN RESISTANCE AND TYPE 2 DIABETES” (The Regents of the University of California, priority 2014, published 2017)
